The record followed here is patent US20100298285A1, “Biclycloheteroaryl Compounds as P2x7 Modulators and Uses Thereof” (priority 2006, published 2010).

For the first test, the system named is IL-1β release, THP-1 cells. The experiment in a line: IL-1β release assay in differentiated THP-1 cells stimulated with BzATP (Example 9). The format is cell-based. Conditions: Homo sapiens; 0.1 μM compound ("*" symbols); differentiated THP-1 cells, 250 uM BzATP; read-out: IL-1β% Inhib. @ 0.3 or 0.1 μM. On the procedure: THP-1 cells (ATCC Cat # 285-IF-100) are plated in 96 well plates at a concentration of 200,000 cells per well and allowed to differentiate in RPMI-1640 media (ATCC Cat # 30-2001) containing 10% FBS, 100 IU/mL penicillin, 100 ug/mL streptomycin, 100 ng/mL LPS and 100 ng/mL IFN-γ for 16 hours. Following differentiation, the cells are treated for an additional 2 hours in RPMI-1640 media containing 100 IU/mL penicillin, 100 ug/mL streptomycin and fresh LPS at 100 ng/mL. The cells are then pretreated for 30 minutes with the compound of interest at the appropriate concentration in RPMI media containing 100 IU/mL penicillin, 100 ug/mL streptomycin. Following the pretreatment 2′,3′-O-(4-benzoylbenzoyl)-adenosine 5′-triphosphate (Sigma Aldrich Cat # B6396) is added to a final concentration of 250 uM and the cells are incubated for an additional 45 minutes. 30 uL of cell supernatant is then collected and IL-1β levels determined via ELISA (R&D systems Cat. # HSLB50) according to manufacturer's recommendations using the Tecan Safire plate reader. Background adjusted IL-1β levels of drug treated and non-treated cells are used to calculate the percent inhibition.
The following compounds have been or can be prepared according to the synthetic methods described above. For the purpose of Table 1 below, activity of each compound, which can be determined using the IL-1β assay method described in Example 9, is expressed as follows: […]
The compounds set forth in Table 1 were tested for activity in a cellular model as described herein. Specifically, cells were pretreated with differing amounts of the compound under test and released IL-1β determined as in Example 9, above. Measurements were made and IC50 values, presented in Table 2, below, were determined by fitting the data to a four parameter logistic equation using GraphPad Prism software (GraphPad Software, Inc). The equation may be expressed by the following formula:
Y=Bottom+(Top−Bottom)/(1+10̂((Log EC50−X)*HillSlope))
Where X is the logarithm of concentration, Y is the response and Y starts at Bottom and goes to Top with a sigmoid shape.
For the molecule `O=C(Cc1ccc(C(F)(F)F)cc1)Nc1c(Cl)ccc2c1CCN(S(=O)(=O)c1cc(Cl)cc(Cl)c1)C2` [Compound 3015], the inhibition at 0.1 µM lay in the range of 0 to 25%. On the same count and under the same terms, with `O=C(Cc1ccc(C(F)(F)F)cc1)Nc1c(Cl)ccc2c1CCN(S(=O)(=O)c1ccc(Cl)c(C(F)(F)F)c1)C2` [Compound 3020] the figure was 0 to 25%; with `Cc1ccc(F)cc1S(=O)(=O)N1CCc2c(ccc(Cl)c2NC(=O)Cc2ccc(C(F)(F)F)cc2)C1` [Compound 3011], 0 to 25%; with `O=C(Cc1ccc(C(F)(F)F)cc1)Nc1c(Cl)ccc2c1CCN(S(=O)(=O)c1cc(F)ccc1F)C2` [Compound 3008], 0 to 25%.

As to `O=C(Cc1ccc(C(F)(F)F)cc1)Nc1c(Cl)ccc2c1CCN(S(=O)(=O)c1ccc(Cl)cc1)C2` [Compound 3013], the inhibition at 0.1 µM was 0 to 25%.

Staying with this test, now noted: Homo sapiens; 0.3 μM compound ("+" symbols); differentiated THP-1 cells, 250 uM BzATP; read-out: IL-1β% Inhib. @ 0.3 or 0.1 μM.
For `Cc1ccc(C)c(S(=O)(=O)N2CCc3c(ccc(Cl)c3NC(=O)Cc3ccc(C(F)(F)F)cc3)C2)c1` [Compound 3025], the inhibition at 0.3 µM was not below 76%. On the same count and under the same terms, with `C[C@H](N)C(=O)N1CCc2c(cccc2NC(=O)Cc2ccc(C(F)(F)F)c(F)c2)C1` [Compound 3054] the figure was 0 to 25%. In the case of `O=C(Cc1cccc(C(F)(F)F)c1F)Nc1c(Cl)ccc2c1CCN(C(=O)c1ccccc1C(F)(F)F)C2` [Compound 3170], the inhibition at 0.3 µM was in the range of 0 to 25%. As to `O=C(Cc1cccc(C(F)(F)F)c1F)Nc1c(Cl)ccc2c1CCN(C(=O)C1CC1)C2` [Compound 3165], the inhibition at 0.3 µM fell in the range of 0 to 25%. On the same count and under the same terms, the same measure for `Cc1cccc(C(=O)N2CCc3c(ccc(Cl)c3NC(=O)Cc3ccc(C(F)(F)F)c(F)c3)C2)c1` [Compound 3074]: 26 to 50%. Same read-out and setting: with `O=C(Cc1ccc(C(F)(F)F)c(F)c1)Nc1cccc2c1CCN(CC(O)C(O)(c1ccccc1)C(F)(F)F)C2` (stereo not drawn) [Compound 3067] the figure was not below 76%. Still for that read-out and setting: with `Cc1ccccc1C(=O)N1CCc2c(ccc(Cl)c2NC(=O)Cc2ccc(C(F)(F)F)c(F)c2)C1` [Compound 3112] the figure was 0 to 25%; with `CC(=O)Nc1ccc(C(=O)N2CCc3c(ccc(Cl)c3NC(=O)Cc3ccc(C(F)(F)F)c(F)c3)C2)cc1` [Compound 3128], 0 to 25%; with `O=C(Cc1ccc(C(F)(F)F)c(F)c1)Nc1c(Cl)ccc2c1CCN(C(=O)COCc1ccccc1)C2` [Compound 3097], 0 to 25%. Consider `O=C(Cc1ccc(C(F)(F)F)c(F)c1)Nc1c(Cl)ccc2c1CCN(C(=O)CC1CCCC1)C2` [Compound 3103], for which the inhibition at 0.3 µM was 51 to 75%. On the same count and under the same terms, with `O=C(Cc1ccc(C(F)(F)F)c(F)c1)Nc1c(Cl)ccc2c1CCN(C(=O)CCC1CCCCC1)C2` [Compound 3130] the figure was 51 to 75%; with `O=C(Cc1ccc(C(F)(F)F)c(F)c1)Nc1c(Cl)ccc2c1CCN(C(=O)c1cccc(Cl)c1Cl)C2` [Compound 3115], 0 to 25%. For `O=C(Cc1ccc(C(F)(F)F)c(F)c1)Nc1c(Cl)ccc2c1CCN(C(=O)c1ccc(Cl)cc1Cl)C2` [Compound 3100], the inhibition at 0.3 µM is 0 to 25%. On the same count and under the same terms, the same measure for `CCCc1ccc(C(=O)N2CCc3c(ccc(Cl)c3NC(=O)Cc3cccc(C(F)(F)F)c3F)C2)cc1` [Compound 3146]: 26 to 50%; for `O=C(Cc1ccc(C(F)(F)F)c(F)c1)Nc1c(Cl)ccc2c1CCN(C(=O)CCc1ccccc1)C2` [Compound 3089]: 0 to 25%; for `O=C(Cc1cccc(C(F)(F)F)c1F)Nc1c(Cl)ccc2c1CCN(C(=O)c1cccc(Cl)c1)C2` [Compound 3156]: 0 to 25%. The same measure, in the same setting: the same measure for `COc1ccccc1C(=O)N1CCc2c(ccc(Cl)c2NC(=O)Cc2cccc(C(F)(F)F)c2F)C1` [Compound 3184]: 0 to 25%; for `O=C(Cc1cccc(C(F)(F)F)c1F)Nc1c(Cl)ccc2c1CCN(C(=O)c1ccc(Cl)c(Cl)c1)C2` [Compound 3148]: 0 to 25%; for `O=C(Cc1cccc(C(F)(F)F)c1F)Nc1c(Cl)ccc2c1CCN(C(=O)c1ccc(F)cc1F)C2` [Compound 3175]: 0 to 25%.

`O=C(Cc1ccc(C(F)(F)F)c(F)c1)Nc1c(Cl)ccc2c1CCN(C(=O)C1COc3ccccc3O1)C2` (stereo not drawn) [Compound 3110]: the inhibition at 0.3 µM lay in the range of 0 to 25%. Same read-out and setting: the same measure for `O=C(Cc1cccc(C(F)(F)F)c1F)Nc1c(Cl)ccc2c1CCN(C(=O)C1CCC1)C2` [Compound 3164]: 0 to 25%. Still for that read-out and setting: with `CCC(C(=O)N1CCc2c(ccc(Cl)c2NC(=O)Cc2cccc(C(F)(F)F)c2F)C1)c1ccccc1` (stereo not drawn) [Compound 3157] the figure was 0 to 25%; with `O=C(Cc1ccc(C(F)(F)F)c(F)c1)Nc1c(Cl)ccc2c1CCN(C(=O)c1cc(F)ccc1F)C2` [Compound 3113], 0 to 25%; with `O=C(Cc1cccc(C(F)(F)F)c1F)Nc1c(Cl)ccc2c1CCN(C(=O)Cc1ccc(Cl)cc1)C2` [Compound 3168], 0 to 25%. As to `N#CN1CCc2c(cccc2NC(=O)Cc2ccc(C(F)(F)F)c(F)c2)C1` [Compound 3053, N-(2-Cyano-1,2,3,4-tetrahydro-isoquinolin-5-yl)-2-(3-fluoro-4-trifluoromethyl-phenyl)-acetamide], the inhibition at 0.3 µM was in the range of 0 to 25%. On the same count and under the same terms, the same measure for `O=C(Cc1ccc(C(F)(F)F)c(F)c1)Nc1c(Cl)ccc2c1CCN(C(=O)C1CCC1)C2` [Compound 3101]: 0 to 25%. Take `O=C(Cc1ccc(C(F)(F)F)c(F)c1)Nc1c(Cl)ccc2c1CCN(C(=O)Cc1ccc(F)cc1)C2` [Compound 3083]: the inhibition at 0.3 µM was in the range of 0 to 25%. Take `O=C(Cc1cccc(C(F)(F)F)c1F)Nc1c(Cl)ccc2c1CCN(C(=O)CCc1ccccc1)C2` [Compound 3151]: the inhibition at 0.3 µM fell in the range of 26 to 50%. Regarding `CC(C)C(=O)N1CCc2c(ccc(Cl)c2NC(=O)Cc2cccc(C(F)(F)F)c2F)C1` [Compound 3150], the inhibition at 0.3 µM fell in the range of 0 to 25%.

For `O=C(Cc1ccc(C(F)(F)F)c(F)c1)Nc1c(Cl)ccc2c1CCN(C(=O)c1ccccc1C(F)(F)F)C2` [Compound 3106], the inhibition at 0.3 µM fell in the range of 26 to 50%. Consider `O=C(Cc1ccc(C(F)(F)F)c(F)c1)Nc1cccc2c1CCN(C(=O)[C@H]1COc3ccccc3O1)C2` [Compound 3037], for which the inhibition at 0.3 µM is not below 76%.

The same test, now with this note: Homo sapiens; THP-1 cells, BzATP 250 uM, four parameter logistic fit.
As to `CC(=O)N1CCc2c(ccc(C)c2NC(=O)Cc2ccc(C(F)(F)F)c(F)c2)C1` [Compound 3201], the IC50 amounted to 175 nM. The same measure, in the same setting: with `Cc1ccc(C)c(S(=O)(=O)N2CCc3c(ccc(Cl)c3NC(=O)Cc3ccc(C(F)(F)F)cc3)C2)c1` [Compound 3025] the figure was 84 nM. On the same count and under the same terms, the same measure for `C[C@H](N)C(=O)N1CCc2c(cccc2NC(=O)Cc2ccc(C(F)(F)F)c(F)c2)C1` [Compound 3054]: 684 nM; for `Cc1ccc2c(c1NC(=O)Cc1ccc(C(F)(F)F)c(F)c1)CCN(S(=O)(=O)C(C)C)C2` [Compound 3414]: 83 nM. In turn, `O=C(Cc1ccc(C(F)(F)F)c(F)c1)Nc1cccc2c1CCN(CC(O)C(O)(c1ccccc1)C(F)(F)F)C2` (stereo not drawn) [Compound 3067] gave an IC50 of 150 nM. On the same count and under the same terms, with `Cc1ccc2c(c1NC(=O)Cc1ccc(C(F)(F)F)c(F)c1)CCN(C(=O)C(C)(C)O)C2` [Compound 3470] the figure was 32.2 nM; with `O=C(Cc1ccc(C(F)(F)F)c(F)c1)Nc1c(Cl)ccc2c1CCN(C(=O)CC1CCCC1)C2` [Compound 3103], 172 nM; with `Cc1ccc2c(c1NC(=O)Cc1ccc(C(F)(F)F)c(F)c1)CCN(C(=O)C1CCCC1)C2` [Compound 3208], 60.2 nM. On the same count and under the same terms, the same measure for `Cc1ccc2c(c1NC(=O)Cc1ccc(C(F)(F)F)c(F)c1)CCN(C(=O)C(C)(C)CO)C2` [Compound 3472]: 203 nM; for `Cc1ccc2c(c1NC(=O)Cc1ccc(C(F)(F)F)c(F)c1)CCN(C(=O)C(C)(C)C)C2` [Compound 3220]: 25.5 nM. For the molecule `CCS(=O)(=O)N1CCc2c(ccc(Cl)c2NC(=O)Cc2ccc(C(F)(F)F)c(F)c2)C1` [Compound 3272], the IC50 is 51.4 nM. Same read-out and setting: the same measure for `O=C(Cc1ccc(C(F)(F)F)c(F)c1)Nc1c(Cl)ccc2c1CCN(S(=O)(=O)c1ccccc1Cl)C2` [Compound 3287]: 60.7 nM. On the same count and under the same terms, the same measure for `N#CN1CCc2c(cccc2NC(=O)Cc2ccc(C(F)(F)F)c(F)c2)C1` [Compound 3053, N-(2-Cyano-1,2,3,4-tetrahydro-isoquinolin-5-yl)-2-(3-fluoro-4-trifluoromethyl-phenyl)-acetamide]: more than 1000 nM. The same measure, in the same setting: with `COc1ccc2c(c1NC(=O)Cc1ccc(C(F)(F)F)c(F)c1)CCN(C(=O)C1(O)CC1)C2` [Compound 3476, 2-(3-Fluoro-4-trifluoromethyl-phenyl)-N-[2-(1-hydroxy-cyclopropanecarbonyl)-6-methoxy-1,2,3,4-tetrahydro-isoquinolin-5-yl]-acetamide] the figure was 325 nM. For the molecule `O=C(Cc1ccc(C(F)(F)F)c(F)c1)Nc1cccc2c1CCN(C(=O)[C@H]1COc3ccccc3O1)C2` [Compound 3037], 145 nM corresponded to half-maximal inhibition (IC50). Same read-out and setting: with `COc1ccc2c(c1NC(=O)Cc1ccc(C(F)(F)F)c(F)c1)CCN(C(=O)C1(O)CCCCC1)C2` [Compound 3477, 2-(3-Fluoro-4-trifluoromethyl-phenyl)-N-[2-(1-hydroxy-cyclohexanecarbonyl)-6-methoxy-1,2,3,4-tetrahydro-isoquinolin-5-yl]-acetamide] the figure was 280 nM; with `Cc1ccc2c(c1NC(=O)Cc1ccc(C(F)(F)F)c(F)c1)CCN(C(=O)CCC1CCCC1)C2` [Compound 3207], 204 nM; with `Cc1ccc2c(c1NC(=O)Cc1ccc(C(F)(F)F)c(F)c1)CCN(S(=O)(=O)c1ccccc1F)C2` [Compound 3460], 41.3 nM.
